Patent publication US20090203663A1, “CHEMICAL COMPOUNDS” (AstraZeneca AB, priority 2006, published 2009)

Key:
human α5β1 = biological target: T1, human α5β1 (Homo sapiens, UniProt P05556+P08648); experiment: In vitro binding assay: inhibition of α5β1 integrin binding to human fibronectin fragment Fn9-10 (Origen electrochemiluminescence); conditions: α5β1 integrin binding to biotinylated Fn9-10; IC50 data; unit inferred
T1 construct: human α5β1 purified from placenta; purchased Chemicon CC1055-K; host or cells: human placenta (tissue-purified)
T1 sequence (P08648 42-894 limits assumed): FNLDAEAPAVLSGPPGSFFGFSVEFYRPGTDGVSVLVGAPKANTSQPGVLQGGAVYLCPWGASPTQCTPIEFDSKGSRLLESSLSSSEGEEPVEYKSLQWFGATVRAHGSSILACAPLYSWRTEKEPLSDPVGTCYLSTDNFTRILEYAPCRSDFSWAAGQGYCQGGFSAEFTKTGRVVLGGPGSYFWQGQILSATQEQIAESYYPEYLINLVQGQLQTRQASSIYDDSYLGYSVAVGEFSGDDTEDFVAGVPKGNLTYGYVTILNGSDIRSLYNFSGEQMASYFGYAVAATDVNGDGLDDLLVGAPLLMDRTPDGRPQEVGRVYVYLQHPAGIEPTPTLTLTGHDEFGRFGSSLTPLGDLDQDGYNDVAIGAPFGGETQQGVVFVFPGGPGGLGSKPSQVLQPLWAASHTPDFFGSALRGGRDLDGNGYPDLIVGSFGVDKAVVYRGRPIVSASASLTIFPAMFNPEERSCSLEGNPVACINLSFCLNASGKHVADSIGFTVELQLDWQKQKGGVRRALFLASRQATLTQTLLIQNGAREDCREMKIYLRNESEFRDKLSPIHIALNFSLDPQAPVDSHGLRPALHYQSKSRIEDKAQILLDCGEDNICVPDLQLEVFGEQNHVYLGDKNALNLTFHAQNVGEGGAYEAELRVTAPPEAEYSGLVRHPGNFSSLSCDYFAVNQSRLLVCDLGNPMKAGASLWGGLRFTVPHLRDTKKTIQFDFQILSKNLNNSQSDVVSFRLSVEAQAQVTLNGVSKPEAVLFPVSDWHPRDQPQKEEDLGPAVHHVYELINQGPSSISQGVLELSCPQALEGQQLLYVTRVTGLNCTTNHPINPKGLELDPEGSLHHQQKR
T1 sequence (P08648 895-1049 partner limits assumed): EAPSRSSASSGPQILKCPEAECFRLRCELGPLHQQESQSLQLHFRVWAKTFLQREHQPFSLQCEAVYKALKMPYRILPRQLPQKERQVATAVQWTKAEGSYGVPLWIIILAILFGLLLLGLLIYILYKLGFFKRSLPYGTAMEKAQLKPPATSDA
T1 sequence (P05556 21-798): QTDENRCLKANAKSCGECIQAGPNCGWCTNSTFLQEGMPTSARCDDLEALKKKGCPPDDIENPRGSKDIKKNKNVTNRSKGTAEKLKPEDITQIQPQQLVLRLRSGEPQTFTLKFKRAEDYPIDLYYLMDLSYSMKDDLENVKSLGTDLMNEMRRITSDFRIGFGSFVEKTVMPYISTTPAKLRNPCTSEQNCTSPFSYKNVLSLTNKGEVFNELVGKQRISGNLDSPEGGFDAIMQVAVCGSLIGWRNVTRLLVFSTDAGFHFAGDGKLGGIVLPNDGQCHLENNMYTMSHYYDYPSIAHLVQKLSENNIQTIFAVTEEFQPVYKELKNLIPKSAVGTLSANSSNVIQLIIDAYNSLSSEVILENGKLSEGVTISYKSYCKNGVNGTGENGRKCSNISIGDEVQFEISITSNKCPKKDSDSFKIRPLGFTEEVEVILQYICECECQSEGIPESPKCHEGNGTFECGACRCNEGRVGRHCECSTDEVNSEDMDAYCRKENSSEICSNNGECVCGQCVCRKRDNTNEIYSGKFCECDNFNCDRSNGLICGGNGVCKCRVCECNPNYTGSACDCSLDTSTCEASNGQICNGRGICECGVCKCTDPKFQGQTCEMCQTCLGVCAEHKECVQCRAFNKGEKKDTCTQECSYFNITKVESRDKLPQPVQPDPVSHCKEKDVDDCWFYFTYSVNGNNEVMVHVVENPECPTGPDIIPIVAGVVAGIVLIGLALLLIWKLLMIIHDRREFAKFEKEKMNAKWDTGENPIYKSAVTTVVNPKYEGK
Excerpt: The assay determined the ability of compounds to inhibit binding of α5β1 integrin to a cognate ligand, a fragment of human fibronectin. The assay used Origen technology (IGEN International) to measure the compound activity. Briefly, α5β1 integrin was coated onto epoxy-paramagnetic beads (Dynal Biotech UK, Bromborough, Wirral, CH62 3QL, UK, Catalogue No 143.02) and biotinylated-fibronectin ligand was coupled to strepatividin labelled BV-Tag-NHS-Ester (BioVeris Corporation, Witney, Oxfordshire, OX28 4GE, UK, Catalogue No JSF396). The ruthenium-labelled BV-Tag emits a electrochemiluminescence signal upon stimulation which is detected by the Origen reader. Thus, interaction of integrin and ligand causes association of bead and tag, and the resulting electrochemiluminescence signal reflects the level of integrin interaction with fibronectin.
Coated beads were then washed into Assay Buffer (25 mM Hepes, 150 mM NaCl, 1 mM MgCl, 1 mM MnCl, 0.1% Tween, pH7.4) to give a final concentration of 20 µg of α5β1/ml. Immediately prior to the assay, the beads were further diluted ×40 fold in Assay Buffer to give a concentration of 0.5 μg α5β1/ml.
A DNA fragment encoding the domains 9-10 (amino-acids 1325-1509) of human fibronectin (Swiss-Prot Acession No. P02751) was isolated from cDNA libraries using standard molecular biology and PCR cloning techniques. The cDNA fragment was sub-cloned into a pT73.3 expression vector containing a GST-epitope tag (developed at AstraZeneca; Bagnall et al., Protein Expression and Purification, 2003, 27: 1-11). Following expression in E. coli, the expressed protein, termed Fn9-10, was purified using the GST-tag using standard purification techniques. The recombinant Fn9-10 was subsequently biotinylated using a EZ-link Sulfo-NHS-LC-Biotinylation kit (Perbio Science UK Ltd., Cramlington, Northumberland, NE23 1WA, UK, Catalogue No. 21335) and made to give a final concentration of approximately 1 mg/ml. BV-Tag-NHS-Ester was is labelled with streptavidin by incubation at room temperature following manufacturers instructions and buffer-exchanged into PBS to give a concentration of 0.5 mg/ml. Immediately prior to the assay, biotinylated-Fn9-10 and Streptavidin-labelled BV-Tag were diluted in Assay Buffer to give a final concentrations of 0.6 ug/ml and 1.5 ug/ml respectively. The Fn9-10 and BV-Tag solutions were then mixed together in equal volumes and incubated on ice for at least 30 minutes prior to the assay.
Test compounds were prepared as 10 mM stock solutions in DMSO (Sigma-Aldrich Company Ltd, Gillingham, Dorset SP8 4XT Catalogue No. 154938) and serially diluted with 4% DMSO to give a range of test concentrations at ×4 required final concentration. Aliquots (20 μl) of each compound dilution were placed into each well of a 384-well round bottomed polypropylene plate (Matrix Technologies, Wilmslow, Cheshire, SK9 3LP, Catalogue No. 4340 384). Each plate also contained control wells: maximum signal was created using wells containing 20 μl of 4% DMSO, and minimum signal corresponding to no binding was created using wells containing 20 μl of 80 mM EDTA (Sigma Catalogue No. E7889).
For the assay, 20 μl of a5b1-bead suspension and 40 μl of the Fn9-10/BV-Tag preincubated solution were added to each well containing 20 μl of compound or control solution. Assay plates were then incubated at room temperature for a minimum of 6 hours before being analysed on the Origen plate reader. […]

[1] = biological target: T2, a5β1 integrin mediated adhesion of K562 cells (Homo sapiens, UniProt P05556+P08648); experiment: In vitro cell adhesion assay: adhesion of K562 cells to fibronectin fragment Fn9-10 (crystal violet); type: cell-based; conditions: K562 cells on Fn9-10 coated plates, 0.2 mM MnCl, 45 minutes; IC50 data; unit inferred
T2 construct: a5β1 integrin mediated adhesion of K562 cells; host or cells: K562 human erythroleukaemia cells
T2 sequence (P08648 42-894 limits assumed): as the sequence (P08648 42-894 limits assumed) above
T2 sequence (P08648 895-1049 partner limits assumed): as the sequence (P08648 895-1049 partner limits assumed) above
T2 sequence (P05556 21-798): as the sequence (P05556 21-798) above
Excerpt: The assay determined the ability of compounds to inhibit the a5β1 integrin mediated adhesion of K562 cells to the ligand, a fragment of human fibronectin. The human K562 erythroleukaemia cell line (LGC Promochem, Teddington, Middlesex, UK, Catalogue No. CCL-243) was routinely maintained in RPMI 1640 medium (Sigma-Aldrich Company Ltd, Gillingham, Dorset SP8 4XT, Catalogue No. R0883) containing 10% heat-inactivated foetal calf serum (PAA lab GmbH, Pasching, Austria Catalogue No. PAA-A15-043) and 1% glutamax-1 (Invitrogen Ltd. Paisley, UK Catalogue No. 35050-038) at 37° C. with 5% CO2 at densities between 1×10^5 and 1×10^6 cells/ml.
A DNA fragment encoding the domains 9-10 (amino-acids 1325-1509) of human fibronectin (Swiss-Prot Acession No. P02751) was isolated from cDNA libraries using standard molecular biology and PCR cloning techniques. The cDNA fragment was sub-cloned into a pT7#3.3 expression vector containing a GST-epitope tag (developed at AstraZeneca; Bagnall et al., Protein Expression and Purification, 2003, 27: 1-11), and the fragment termed Fn9-10. Following expression in E. coli, the expressed protein was purified using the GST-tag using standard purification techniques.
For adhesion assay, a 96-well flat bottomed plate (Greiner Bio one ltd., Gloucester GL10 3SX Catalogue No. 655101) was coated overnight at 4° C. with 100 μl of 20 μg/ml Fn9-10 ligand in Dulbecco's PBS (Gibco#14190-94). The plate was then washed twice with 200 μl of PBS and blocked with 100 μl of 3% BSA (SigmaA7888) in PBS for 1 hour at 37° C. The plates were then washed again 3 times with 200 μl of PBS and left empty.
Test compounds were prepared as 10 mM stock solutions in DMSO (Sigma-Aldrich Company Ltd, Gillingham, Dorset SP8 4XT Catalogue No. 154938) and serially diluted with HBSS (Hanks Buffered Salt solution (Gibco Catalogue No. 14170-088)/2% DMSO to give a range of test concentrations at twice required final concentration. Aliquots (50 μl) of each compound dilution were placed into each well of the Fn9-10 coated plates. Each plate also contained control wells: maximum adhesion signal was created using wells containing 50 μl HBSS/2% DMSO, and minimum signal corresponding to no adhesion was created using wells containing 50 μl HBSS/2% DMSO/20 mM EDTA (Sigma Catalogue No. E7889).
The K562 cells were cultured to ˜1×10^6 cells/ml, and each culture suspension pooled. Cells were centrifuged at 1200 rpm for 2 mins, and the pellets washed with HBSS followed by HBSS/50 mM HEPES (Sigma Catalogue No. H0887). Cell pellets were pooled and resuspended in HBSS/0.4 mM manganese chloride/50 mM HEPES (MnCl; Sigma Catalogue No. M1787) to give a final concentration of 4×10^6 cells/ml.
The assay was initiated by the addition of 50 μl of cell suspension into each coated well (200,000 cells/well), thus resulting in final desired compound concentration and a final MnCl concentration of 0.2 mM. The plates were incubated for 45 minutes at 37° C. 5% CO2. […]
After fixation, the ethanol was flicked off to waste and 100 μl of 0.1% Crystal violet stain was added to each well, and incubated at ambient temperature for 15 minutes. […] Finally, 100 μl of deionised water was added to each well and the absorbance was determined at 590 nm on a spectrophotometer. The minimum value was subtracted from all values, and the absorbance signal was plotted against compound concentration to generate IC50 data.

Row | Compound | IC50 (human α5β1) | IC50 [1]
1 | CN1CCC(Oc2ccc(C[C@H](NC(=O)c3c(Cl)cccc3Cl)C(=O)O)cc2)CC1 [Example 20, N-(2,6-Dichlorobenzoyl)-O-(1-methylpiperidin-4-yl)-L-tyrosine] | 0.185 µM | 2.4 µM
2 | N#Cc1cccc(CN2CCC(Oc3ccc(C[C@H](NC(=O)c4c(Cl)cccc4Cl)C(=O)O)cc3)CC2)c1 [Example 83, O-[1-(3-cyanobenzyl)piperidin-4-yl]-N-(2,6-dichlorobenzoyl)-L-tyrosine] | 1.7 µM | 6.6 µM

The remaining compounds from weak to strong by IC50 (human α5β1), led by results:

Row | IC50 (human α5β1) | IC50 [1] | Compound
3 | 4.1 µM | 11.4 µM | O=C(N[C@@H](Cc1ccc(O[C@H]2CCCN(Cc3cc(F)ccc3F)C2)cc1)C(=O)O)c1c(Cl)cccc1Cl [Example 76, N-(2,6-dichlorobenzoyl)-O-[(3S)-1-(2,5-difluorobenzyl)piperidin-3-yl]-L-tyrosine]
4 | 1.2 µM | 9.3 µM | N-(2,6-Dichlorobenzoyl)-O-[(3R)-pyrrolidin-3-yl]-L-tyrosine [Example 17]
5 | 0.466 µM | 4 µM | Cc1cc(C(=O)N2CC(Oc3ccc(C[C@H](NC(=O)c4c(Cl)cccc4Cl)C(=O)O)cc3)C2)ccc1F [Example 48, N-(2,6-dichlorobenzoyl)-O-[1-(4-fluoro-3-methylbenzoyl)azetidin-3-yl]-L-tyrosine]
